Reference: publication PMC9272924, “Design and synthesis of thiazolidine-2,4-diones hybrids with 1,2-dihydroquinolones and 2-oxindoles as potential VEGFR-2 inhibitors: in-vitro anticancer evaluation and in-silico studies” (Journal of Enzyme Inhibition and Medicinal Chemistry, 2022)
Values joined by “and” are separate entries in the source; they are usually repeats but may differ in a detail not shown here. Equal entries are not always repeated. “Also recorded” adds a separate entry of the source.

Tests used:
[1] = In vitro anti-proliferative activity (MTT assay), Caco-2; type: cell-based; conditions: African green monkey (Vero); human (Caco-2); SI = Cytotoxicity against Vero cells / Cytotoxicity against Caco-2 cell line; read-out: Selectivity index (SI) (Caco-2)
Experimental: (§1) Target quinolines 8a–c, indolines 12a and 12b were assessed for their potential anti-proliferative effects against a panel of three different cancer cell lines; colon (Caco-2), hepatocellular (HepG2), and breast (MDA-MB-231) cancer cell lines using standard MTT assay protocol. The obtained results confirmed the anti-cancer effects of the tested compounds against the three types of cancerous cell lines, expressed as the median growth inhibitory concentration (IC50), and were presented in Table 1.
(§2) Anti-proliferative activities of the experimented compounds were assessed against Caco-2, HepG-2, and MDA-MB-231 cell lines using MTT assay protocol[54]^,[74] as described in Supplementary data. […]
(§3) a- Mammalian cell lines culture
(§4) WISH, CaCo-2, and A549 cell lines were cultured on DMEM media, meanwhile MDA-MB-231 and hepG-2 cell line were cultured on RBMI media. The cultured media were supplemented with 200 mM L-glutamine, 10.0% fetal bovine serum (Lonza), and 1.0% penicillin/streptomycin. Cells were seeded into 25.0 cm tissue culture flasks and incubated at 37◦C in a 5.0% CO2 incubator for 24 h or till confluency.
(§5) The safety profiles of the tested compounds were checked on one non-cancerous cell line (Vero) to […]
(§6) of 100.0 µl of 6×10^4 cell/ml cells was seeded into each well of a 96-well plate and then the plates were incubated at 37 °C in a humidified 5.0% CO2 incubator for 24 h. At the end of incubation period, the exhausted medium was replaced with 100.0 µl of different concentrations of the designated treatment (prepared in RPMI medium starting from 1.0 mM). The inoculated plates were incubated at the same growth conditions for another 24 h. At the end of incubation, cellular viability was assessed using MTS assay kit (Promega) according to the manual instruction. c- In-vitro anticancer activity
(§7) Anticancer activities of the tested compounds against CaCo-2, MDA-MB-231, and hepG-2 cell lines were quantified using MTS assay kit (Promega) as described by the Manufacturer. d- Selectivity index (SI)
(§8) The selectivity index values of the tested compounds on cancer cells were calculated as described by Koch et al., with slight modifications; SI=IC50nc/IC50cc, where IC50nc: the IC 50 value of the tested compound on normal cells and IC 50cc: IC50 of the te sted compound on cancer cell line . […]

Caco-2 = experiment: as above; type: cell-based; conditions: Homo sapiens, Caco-2; MTT assay; mean of three replicates
Experimental: as §1, §2, §3, §4, §5, §6, §7, §8

HepG2 = experiment: In vitro anti-proliferative activity (MTT assay), HepG2; type: cell-based; conditions: for IC50: Homo sapiens, HepG2, MTT assay, mean of three replicates; for Selectivity index (SI) (HepG2): SI = Cytotoxicity against Vero cells / Cytotoxicity against HepG2 cell line
Experimental: as §1, §2, §3, §4, §5, §6, §7, §8

MDA-MB-231 = experiment: In vitro anti-proliferative activity (MTT assay), MDA-MB-231; type: cell-based; conditions: for IC50: Homo sapiens, MDA-MB-231, MTT assay, mean of three replicates; for Selectivity index (SI) (MDA-MB-231): SI = Cytotoxicity against Vero cells / Cytotoxicity against MDA-MB-231 cell line
Experimental: as §1, §2, §3, §4, §5, §6, §7, §8

VEGFR-2 = biological target: T1, VEGFR-2 (Homo sapiens, UniProt P35968); experiment: In vitro VEGFR-2 kinase assay (VEGFR-2 ELISA kit); type: biochemical; conditions: for HillSlope, best-fit value, VEGFR-2 inhibition / LogIC50, best-fit value, VEGFR-2 inhibition: raw data curve fit, % remaining activity
T1 construct: purchased
Excerpt: To explore the molecular mechanism of the tested compounds as anticancer agents, the compounds were further evaluated to assess their enzymatic inhibitory potential against VEGFR-2.
VEGFR-2 inhibitory activity of the experimented compounds was preceded using a VEGFR-2 ELISA kit as reported and described in Supplementary data.

[2] = Safety assay: in-vitro viability on non-cancerous Vero cell line; type: cell-based; conditions: African green monkey, Vero cells (non-cancerous cell line), MTT assay, read-out: Cytotoxicity against Vero (IC50 µM)
Experimental: An in-vitro viability test was used to investigate the safety patterns of the tested compounds at different concentrations (1.0 mM/mL to 50 µM/mL). The Vero cell line was used as a non-cancerous cell line model to investigate the safety of the synthesised compounds. […] Such values were very high in comparison to the corresponding values on cancer cell lines, which reflect the high in vitro safety profile of the tested members towards non-cancerous cell lines (Table 2). […]
as §3, §4, §5
as §6, with “c- In-vitro anticancer activity” left out
d- Selectivity index (SI)
as §8

Caco-2 cells = experiment: Cell migration (in-vitro scratch / wound healing) assay; type: cell-based
Excerpt: The potential of compound 12a to inhibit the ability of Caco-2 cells to migrate and heal was investigated through the in-vitro scratch assay which is a low-cost easy and well-developed method. The basic concept of this method involves the generation of a scratch in a cancer cell line monolayer, recording the diameter at the beginning, and at regular intervals during cell migration to close that scratch. The obtained results of the treated cell line are then compared to the untreated cell line. Images of scratched areas from the time points; 0, 24 are illustrated in Figure 3.
Regarding the representative control, the scratch was completely closed within 24 h (Figure 3(C)). […] This significant morphological change could be linked to the incidence of apoptosis in the treated cancer cells.
Cell migration assay was fulfilled according to the reported protocol as described[78] in Supplementary data. […]
as §3
as §4, with “confluency. […]” for “confluency.”
e- Wound healing assay (Migration assay)
CaCo-2 cells were grown to 95.0% confluency in a complete DMEM medium and then the wounds were formed using a plastic tip. After washing with pre -warmed PBS, the cells were incubated in the specific medium or the 12a treatment. After incubation at 37°C and 5.0% CO 2 for 24h, the cells were washed with PBS and the wounds distance was determined as the scratch width of the treated and untreated groups using […]

Bcl2 = experiment: Gene expression by RT-qPCR in Caco-2 cells, Bcl2; type: cell-based; conditions: Caco-2 treated with 2 µM (IC50 value) of 12a, compared to control cells
Excerpt: (§9) These findings indicate the efficiency of compound 12a in the induction of apoptosis (Figure 4).
(§10) The molecular anticancer mode of action of 12a was investigated by screening their ability to control the gene expression levels of Bcl2, Bcl-xl, TGF and Survivin genes as reported[79] in Supplementary data. […]
(§11) f- Gene expression pattern alternation of cancer cell after 12a treatment The molecular anticancer mode of action of 12a was investigated by screening their ability to affect the gene expression levels of Bcl2, Bcl-xl, TGF and Survivin genes using specific forward and reverse primers and RTq-PCR technique (Table 1) in CaCo-2 cells (chosen as the most sensitive cancer cell line). After cellular treatment, CaCo-2 cell line was cultured into 12 well plates (6×10^3 cell/ml) for 24 h. with the sub- […]
(§12) After treatment, total RNA extraction was performed using RNA extraction kit (Qiagen, Germany). Then, 1 ug of the obtained RNA was used to synthesiz cDNA using cDNA synthesis kit (Promega Corp., Madison, WI) as recommended by the manufacturer. Simultaneously, GAPDH forward and reverse primers (Table 1) were used to amplify the house keeping gene as internal control for standardization of PCR products. The RTq-PCR was done using SYBR Green dye (QuantiTect SYBR Green PCR Kits) and Light Cycler fluorimeter (Bio-RAD S1000 Tm thermal cycler). […]

Bcl-xl = experiment: Gene expression by RT-qPCR in Caco-2 cells, Bcl-xl; type: cell-based; conditions: Caco-2 treated with 2 µM (IC50 value) of 12a, compared to control cells
Excerpt: as §9, §10, §11, §12

Survivin = experiment: Gene expression by RT-qPCR in Caco-2 cells, Survivin; type: cell-based; conditions: Caco-2 treated with 2 µM (IC50 value) of 12a, compared to control cells
Excerpt: as §9, §10, §11, §12

TGF = experiment: Gene expression by RT-qPCR in Caco-2 cells, TGF; type: cell-based; conditions: Caco-2 treated with 2 µM (IC50 value) of 12a, compared to control cells
Excerpt: as §9, §10, §11, §12

T1 sequence (P35968 20-1356): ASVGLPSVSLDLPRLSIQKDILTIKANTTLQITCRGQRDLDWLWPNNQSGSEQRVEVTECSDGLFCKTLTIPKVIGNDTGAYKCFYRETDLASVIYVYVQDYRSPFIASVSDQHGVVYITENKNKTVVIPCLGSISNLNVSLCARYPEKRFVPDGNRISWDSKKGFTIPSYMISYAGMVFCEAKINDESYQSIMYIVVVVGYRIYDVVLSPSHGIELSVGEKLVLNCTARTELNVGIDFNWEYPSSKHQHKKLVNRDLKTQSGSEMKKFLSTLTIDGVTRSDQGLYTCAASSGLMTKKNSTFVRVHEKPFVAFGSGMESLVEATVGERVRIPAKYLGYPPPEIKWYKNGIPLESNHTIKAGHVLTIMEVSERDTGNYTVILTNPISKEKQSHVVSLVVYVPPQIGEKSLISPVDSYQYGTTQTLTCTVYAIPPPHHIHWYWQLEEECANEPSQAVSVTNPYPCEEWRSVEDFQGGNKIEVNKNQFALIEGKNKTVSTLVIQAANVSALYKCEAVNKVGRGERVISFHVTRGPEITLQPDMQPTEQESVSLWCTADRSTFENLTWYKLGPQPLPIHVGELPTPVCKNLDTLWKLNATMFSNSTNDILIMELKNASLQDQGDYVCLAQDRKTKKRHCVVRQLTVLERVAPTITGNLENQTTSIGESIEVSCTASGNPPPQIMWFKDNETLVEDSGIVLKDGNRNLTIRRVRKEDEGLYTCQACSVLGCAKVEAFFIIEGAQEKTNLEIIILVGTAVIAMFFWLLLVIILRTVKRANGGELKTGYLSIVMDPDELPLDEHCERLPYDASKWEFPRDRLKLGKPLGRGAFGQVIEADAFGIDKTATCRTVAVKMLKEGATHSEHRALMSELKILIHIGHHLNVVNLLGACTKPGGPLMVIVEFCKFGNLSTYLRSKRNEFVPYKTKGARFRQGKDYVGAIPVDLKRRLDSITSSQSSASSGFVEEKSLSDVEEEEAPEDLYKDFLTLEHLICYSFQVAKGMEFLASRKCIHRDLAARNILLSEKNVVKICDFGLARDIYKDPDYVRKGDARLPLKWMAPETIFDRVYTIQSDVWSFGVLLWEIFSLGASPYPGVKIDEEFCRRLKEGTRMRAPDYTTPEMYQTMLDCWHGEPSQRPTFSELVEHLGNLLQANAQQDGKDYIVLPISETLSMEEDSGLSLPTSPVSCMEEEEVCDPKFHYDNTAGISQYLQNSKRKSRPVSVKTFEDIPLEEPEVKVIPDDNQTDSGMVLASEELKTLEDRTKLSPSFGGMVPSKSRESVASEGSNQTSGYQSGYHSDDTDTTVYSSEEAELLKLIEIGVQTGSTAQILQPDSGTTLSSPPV

Row | Structure (SMILES) | selectivity ratio [1] | IC50 (Caco-2) | IC50 (HepG2) | Selectivity index (SI) (HepG2) (HepG2) | IC50 (MDA-MB-231) | Selectivity index (SI) (MDA-MB-231) (MDA-MB-231) | IC50 (VEGFR-2) | HillSlope, best-fit value, VEGFR-2 inhibition (VEGFR-2) | LogIC50, best-fit value, VEGFR-2 inhibition (VEGFR-2) | IC50 at 24 h [2] | wound diameter of treated Caco-2 cells (Caco-2 cells; 12a at sub IC50 value (1 µM), 24 h, 0.348 mm at 0 h, control scratch completely closed within 24 h) | scratch closure and cancer cell migration (Caco-2 cells; Caco-2, 1 µM, 24 h) | Caco-2 cell shape (Caco-2 cells; within 24 h) | Bcl2 gene expression (Bcl2) | Bcl-xl gene expression (Bcl-xl) | Survivin gene expression (Survivin) | TGF gene expression (TGF)
1 | O=C(CN1C(=O)SC(=Cc2cc3ccccc3[nH]c2=O)C1=O)NCCc1ccccc1 [Compound 8b, 2–(2,4-Dioxo-5-((2-oxo-1,2-dihydroquinolin-3-yl)methylene)thiazolidin-3-yl)-N-phenethylacetamide] | 5.93 | 150 ± 0.013 µM | 60 ± 0.008 µM | 14.83 | 60 ± 0.003 µM | 14.83 | 0.0874 µM | -0.3502 | 1.941 Log (nM) | 890 ± 0.015 µM |  |  |  |  |  |  | 
2 | Cc1ccc(NC(=O)CN2C(=O)S/C(=C3\C(=O)Nc4ccccc43)C2=O)cc1 [Compound 12a, (Z)-2–(2,4-dioxo-5–(2-oxoindolin-3-ylidene)thiazolidin-3-yl)-N-(p-tolyl)acetamide] | 365 | 2 ± 0.005 µM | 10 ± 0.001 µM | 73.00 | 40 ± 0.002 µM | 18 and 18.25 |  | -0.4584 | 2.066 Log (nM) | 730 ± 0.015 µM | 0.335 mm | significantly inhibited the scratch closure and cancer cell migration; also recorded: significantly inhibited the ability of cancer cells to migrate and heal | changed the Caco-2 cell shape from an irregular into the normalised round form; also recorded: changed the cancer cell shape from irregular to a normalised round form | significant down-regulation; also recorded: downregulate | significant down-regulation; also recorded: downregulate | significant down-regulation; also recorded: downregulate | upregulation; also recorded: upregulate
3 | Cc1ccc(NC(=O)CN2C(=O)SC(=Cc3cc4ccccc4[nH]c3=O)C2=O)cc1 [Compound 8a, 2–(2,4-Dioxo-5-((2-oxo-1,2-dihydroquinolin-3-yl)methylene)thiazolidin-3-yl)-N-(p-tolyl)acetamide] | 177 | 9 ± 0.001 µM | 86 ± 0.001 µM | 18.49 | 150 ± 0.01 µM | 10.60 | 0.0966 µM | -0.4030 | 1.985 Log (nM) | 1590 ± 0.068 µM |  |  |  |  |  |  | 
4 | COc1cccc2c1C(=O)c1c(O)c3c(c(O)c1C2=O)C[C@@](O)(C(=O)CO)C[C@@H]3O[C@H]1C[C@H](N)[C@H](O)[C@H](C)O1 [Doxorubicin, reference compound] |  | 3.46 ± 0.003 µM | 1.15 ± 0.02 µM |  | 0.98 ± 0.01 µM |  |  |  |  |  |  |  |  |  |  |  | 
5 | O=C(CN1C(=O)SC(=Cc2cc3ccccc3[nH]c2=O)C1=O)Nc1ccccc1[N+](=O)[O-] [Compound 8c, 2–(2,4-Dioxo-5-((2-oxo-1,2-dihydroquinolin-3-yl)methylene)thiazolidin-3-yl)-N-(2-nitrophenyl)acetamide] | 4.33 | 90 ± 0.004 µM | 156 ± 0.004 µM | 2.50 | 70 ± 0.009 µM | 5.57 | 0.318 µM | -0.3460 | 2.502 Log (nM) | 390 ± 0.02 µM |  |  |  |  |  |  | 
6 | O=C(CN1C(=O)S/C(=C2\C(=O)Nc3ccccc32)C1=O)Nc1ccccc1[N+](=O)[O-] [Compound 12b, (Z)-2–(2,4-dioxo-5–(2-oxoindolin-3-ylidene)thiazolidin-3-yl)-N-(2-nitrophenyl) acetamide] | 4 | 120 ± 0.001 µM | 49 ± 0.008 µM | 9.80 | 37 ± 0.002 µM | 12.97 | 0.0841 µM | -0.2985 | 1.925 Log (nM) | 480 ± 40 µM |  |  |  |  |  |  | 
